Laboratory results as given in publication PMC9138545, “Incorporation of Oxidized Phenylalanine Derivatives into Insulin Signaling Relevant Proteins May Link Oxidative Stress to Signaling Conditions Underlying Chronic Insulin Resistance” (Biomedicines, 2022).
Entries after “also recorded” stand apart in the source; their conditions may differ. Values belong to the molecule of their own block, whether it stands above or below them.

What was measured:
[1] = test system: 3T3-L1 adipocytes; test: Isotope glucose uptake (deoxy-D-glucose 2-[1 2-3H(N)]) in differentiated 3T3-L1 adipocytes; type: cell-based, mouse
Protocol: (§1) Early passages of mouse embryo fibroblast (3T3-L1) (ATCC, Manassas, VA, US) were cultured in Dulbecco’s modified Eagle medium (DMEM, Sigma Aldrich, Budapest, Hungary, CAT number: D6046; Invitrogen, Waltham, MA, USA, CAT number: 41966-029) supplemented with 100 U/mL penicillin, 0.1 mg/mL streptomycin (Gibco, Budapest, Hungary, CAT number: 15070-063) and 10% heat-inactivated Fetal Bovine Serum (FBS, Gibco, CAT number: 16170-078), supplemented with 398 nM p-, m-, or o-Tyr (equimolar to the original p-Tyr content of the medium) purchased from Sigma (CAT number: para-Tyr: T8566, m-Tyr: T3629, o-Tyr: 93851). Media contained 25 or 5 mmol/L glucose (experiment dependent) pyruvate and L-glutamine. Cells were grown at 37 °C and 5% CO2. Adipocyte differentiation was achieved by DMEM supplemented with 10% FBS (Gibco, Csertex, Budapest, Hungary, CAT number: 10106-169) (FBS) and a […] insulin (Sigma Aldrich, Budapest, Hungary, CAT number: I 9278), […] isobuthylmethylxanthine (Sigma Aldrich, Budapest, Hungary, CAT number: I 5879), and 250 nmol/L dexamethasone (Sigma Aldrich, Budapest, Hungary, CAT number: 861871) containing cocktail. From day 4 onward, cultures were maintained in DMEM containing 1.5 μg/mL insulin and 10% FBS with a medium change every other day until experimental treatments were started. After 90% of the cell population reached the adipocyte phenotype, prior to all treatments, cells were incubated overnight in serum-deprived medium. Experimental treatment was performed in serum-deprived medium containing 200 or 400 nmol/L insulin, for 5 min.
Initially, cells were kept in glucose-free DMEM (Gibco, Csertex, Budapest, Hungary) for 30 min and then were treated with 2, 20, 200, or 400 nmol/L insulin for 100 min. Concurrently, 1 μCi/mL deoxy-D-glucose 2-[1 2-3H(N)] (3.7 × 104 Bq/mL) (Izotóp Intézet, Budapest, Hungary) was added to the plates for 100 min. After scraping the cells into the medium, they were centrifuged for 5 min at 1000 rpm. We dissolved the sediment in 70 μL of lysis buffer, then glucose uptake was determined by scintillation counting by measuring 30 μL of the sample, using a Beckman LS 5000 TD counter, in counts per minute (CPM), for five minutes each, with average activity was used as the outcome. Following freezing overnight at −70 °C, protein concentration was measured with a Hitachi spectrophotometer. Results were normalized for protein content.

[2] = test system: 3T3-L1 adipocytes; test: HPLC of non-protein-bound intracellular tyrosines; type: cell-based, mouse; conditions: 5 or 25 mmol/L glucose, with or without 400 nmol/L insulin
Protocol: as §1
To measure the total intracellular non-protein-bound tyrosine concentration, prior to the freezing of samples overnight at −70 °C to achieve cell lysis, 200 μL distilled water was added to each. After melting up, samples were centrifuged for 15 min at 15,000 rpm. A total of 200 µL of the supernatant was mixed with 200 µL of 60% trichloroacetic acid. After 30 min incubation on ice, samples were centrifuged again at 15,000 rpm for 15 min. Then, the supernatant was filtered and was diluted 5-fold and then 160 µL distilled water was added to 40 µL of filtrate, followed by the injection of the mixture onto the HPLC column.
The amounts of p-, o-, m-Tyr and Phe in the samples were determined by measuring their autofluorescence. Thus, no derivatization or staining was needed. Samples were measured on a Shimadzu Class 10 HPLC system equipped with an RF-10 AXL fluorescent detector (Shimadzu USA Manufacturing Inc., Canby, OR, USA). The mobile phase consisted of 1% sodium acetate and 1% acetic acid dissolved in water. The separation took place on a LiChroCHART 250-4 column (Merck KGaA, Darmstadt 64271, Germany) in an isocratic run. Wavelengths of 275 nm for excitation and 305 nm for emission were used to assess p-, o- and m-Tyr, while Phe was detected at 258 nm excitation and 288 nm emission wavelengths. Determination of the area under the curve (AUC) plus external standard calibration was used to calculate the precise concentrations of the amino acids.

[3] = test system: p-IRS-1 in podocytes; test: Immunofluorescence of p-IRS-1 in insulin-treated podocytes; type: cell-based, human; conditions: 400 nmol/l insulin for 10 min
Protocol: (§2) The conditionally immortalized human podocyte cell line (provided by Moin Saleem, University of Bristol, UK) was cultured in RPMI1640 medium (R8756, Sigma Aldrich, Budapest, Hungary) supplemented with 10% heat-inactivated FBS (16170-078, Gibco, Budapest, Hungary), insulin-transferrin-selenium supplement (41400-045, Gibco), 100 U/mL penicillin, 0.1 mg/mL streptomycin (P4333, Sigma), and […] (equimolar to the original p-Tyr content of the medium) para-, meta-, or ortho-Tyr. The cells were grown at 33 °C 5% CO2, and when they reached 40–60% confluency they were transferred to 37 °C to differentiate. Following the thermoswitching, cells were kept on RPMI1640 medium containing 2% FBS, antibiotics, and different tyrosines. Before every treatment, cells were incubated in serum-deprived medium overnight.
(§3) In a 6-well plate, 104 cells were cultured on glass coverslips washed with alcohol and dried under UV light. The podocyte cells were grown in RPMI1640 medium supplemented with 10% heat-inactivated FBS at 33 °C, 5% CO2. When they reached 60% confluence, the medium was changed to RPMI1640 medium containing 2% FBS and 112.05 nM of the different tyrosine isoforms, then the plates were transferred to 37 °C, 5% CO2 to allow the cells to differentiate. The different tyrosine isoforms were added to the maintenance medium. The cells were serum deprived overnight, then incubated with 400 nmol/l insulin for 10 min. After removal of the medium, the coverslips were washed twice with PBS. The cells were fixed at room temperature in 2% paraformaldehyde and 4% sucrose for 8 min, then permeabilized using 0.3% Trion X-100 in 1xPBS for 20 min and blocked in 2.5% BSA for 45 min [45]. The primary antibody was diluted in 1xPBS, and the cells were incubated in it for 60 min in humid conditions. The antibodies we used were mouse anti-WT1 antibody (H-1) (1:100, Santa Cruz Biotechnology, Dallas, TX, USA), chicken anti-vimentin antibody (1:100, Abcam), rabbit anti-glucose transporter GLUT4 antibody (1:100, Abcam, Cambridge, UK), mouse Insulin Receptor Substrate-1 antibody (1:100, Invitrogen, Waltham, MA, USA), and rabbit anti-phospho-Insulin Receptor Substrate-1 (pTyr612) antibody (1:10, Sigma). Coverslips were washed in PBS three times for 5 min in PBS and incubated in the fluorophore-conjugated secondary antibodies anti-goat, anti-chicken, secondary antibody Alexa fluor 647, anti-rabbit Alexa fluor 350, and anti-mouse Alexa Fluor 488 (1:10, Invitrogen) for 60 min. Samples were then washed in PBS three times for 5 min and mounted in Vectashield (Vector Laboratories). Images were taken with a Nikon Eclipse Ti2 microscope.

[4] = test system: GLUT4 and vimentin in podocytes; test: Immunofluorescence of GLUT4 and vimentin in insulin-treated podocytes; type: cell-based, human; conditions: 400 nmol/l insulin for 10 min
Protocol: as §2, §3

[5] = test system: IR kinase (989–1382, fused to GST); test: IR kinase phosphorylation assay, capillary electrophoresis; type: biochemical; conditions: 200 μM peptide, 875 nM IR kinase, 1 mM ATP, 5 mM MgCl2, pH 7.5
Protocol: Enzymatically active IR kinase (989–1382, fused to GST and produced in SF9 cells) was ordered from SinoBiological (catalog number 11081-H20B1). The stock solution was aliquoted and frozen separately to preserve activity. Prior to comparative measurements, the activity of recombinant IR kinase was tested on internal control peptides and found to be suitable for kinase assays.
The kinase assay mixture contained 200 μM peptide (GRKGSGDYMPMSPKV) and 875 nM IR kinase in kinase buffer (20 mM potassium phosphate (monobasic), 15 mM sodium phosphate (dibasic), 103 mM NaCl, 5 mM MgCl2, 5% glycerol, 0.05% Igepal; pH 7.5). The reaction was initialized by addition of 1 mM ATP. The phosphatase reaction mixture contained 80 μM peptide (GRKGSGD(phosphoY)MPMSPKV) in buffer (50 mM TRIS, 150 mM NaCl, 1 mM EDTA and 2 mM DTT; pH 7.4). The reaction was initialized by addition of 25 nM PTP1B enzyme. Equal aliquots of the kinase or the phosphatase reaction mixture were subjected to capillary electrophoresis analysis at the indicated time points after the start the reaction.
Background electrolyte (BGE) components phosphoric acid and triethylamine were purchased from Sigma (St. Louis, MO, USA) and from Merck GmbH (Darmstadt, Germany), respectively. Capillary electrophoresis was performed with an Agilent Capillary Electrophoresis 3DCE system (Agilent Technologies, Waldbronn, Germany) applying DB-WAX coated capillary having a 33.5 cm total and 25 cm effective length with 50 μm I.D. (Agilent Technologies, Santa Clara, CA, USA). On-line absorption at 200 nm was monitored by DAD UV-Vis detector. The capillary was thermostated at 25 °C. Before measurements, the capillary was rinsed subsequently with distilled water for 15 min and between measurements with BGE (100 mM trimethylamine-phosphate buffer; pH 2.5) for 3 min. Samples were injected by 5 × 10^3 Pa pressure for 6 s. Runs were performed in the positive-polarity mode with 20 kV.

[6] = test system: IRS-1 (Tyr612); test: Western blot, activating phosphorylation of IRS-1 (Tyr612); type: cell-based; conditions: 400 nmol/L insulin; adipocytes, HEK cells, podocytes, macrophages; n = 4–8
Protocol: as §1, §2
(§4) HEK-293 immortalized cell line (ATCC, Manassas, VA, USA) of epithelial morphology and the J774A.1 mouse BALB/C monocyte-macrophage cell lines (91051511-1VL, Sigma Aldrich, Budapest, Hungary) were cultured in Petri dishes with a medium composed of Dulbecco’s modified Eagle’s medium (DMEM, Sigma Aldrich, Budapest, Hungary, CAT number: D6046, Invitrogen, CAT number: 41966-029), with a 10% heat-inactivated FBS supplementation (16170-078, Gibco), insulin-transferrin-selenium supplement (41400-045, Gibco, Budapest, Hungary,), 100 U/mL penicillin and 0.1 mg/mL streptomycin (P4333, Sigma) and 398 nM para (5 and 25 mmol/L), meta-, or ortho-Tyr (T8566, T3629, 93851, Sigma). Before treatment, cells were incubated in serum-deprived medium overnight as well. […]
(§5) The samples of lysates were vortexed and centrifuged (10 min, 13,000 rpm, at 4 °C). Protein content of the samples was determined by the Lowry method using bovine serum albumin as a standard. […]

[7] = test system: Akt (Ser473); test: Western blot, activating phosphorylation of Akt (Ser473); type: cell-based; conditions: 400 nmol/L insulin; adipocytes, HEK cells, podocytes, macrophages; n = 4–8
Protocol: as §1, §2, §4, §5

Molecule: N[C@@H](Cc1ccc(O)cc1)C(=O)O [p-Tyr, para-tyrosine, reference compound]
reversal of inhibitory effect of o- and m-Tyr on glucose uptake ([1]; increasing p-Tyr concentrations, with or without 400 nmol/L insulin, n = 10): ameliorated by increasing concentrations of p-Tyr
cellular uptake of amino acids (non-protein-bound intracellular content) [2]: continuous uptake of amino acids which was independent of glucose concentration (5 or 25 mmol/L) and the presence of insulin
membrane translocation of IRS-1 / p-IRS-1 [3]: clearly demonstrated; also recorded: located in the membrane
p-IRS-1 intensity ([3]; vs. p-Tyr): more intense
GLUT4 membrane localization [4]: characteristic localization of GLUT-4 positivity; also recorded: GLUT4 aggregates are transported to the membrane

Molecule: GRKGSGDF(2-hydroxy)MPMSPKV [o-tyrosine containing peptides, unphosphorylated ortho-tyrosine IRS-1 YXXM motif peptide]
phosphorylation by IR kinase [5]: neither o- nor m-tyrosine containing peptides are substrates for the IR kinase
phosphorylation by IR kinase ([5]; listed as ortho-tyrosine peptides): very poor substrates

Molecule: GRKGSGDF(3-hydroxy)MPMSPKV [m-tyrosine containing peptides, unphosphorylated meta-tyrosine IRS-1 YXXM motif peptide]
phosphorylation by IR kinase [5]: neither o- nor m-tyrosine containing peptides are substrates for the IR kinase
phosphorylation by IR kinase ([5]; listed as meta-tyrosine peptides): very poor substrates

phosphorylation by IR kinase [5]: efficiently phosphorylated
Molecule: GRKGSGDF(4-hydroxy)MPMSPKV [p-Tyr containing “natural” peptide, unphosphorylated para-tyrosine IRS-1 YXXM motif peptide]

Molecule: insulin: insulin (Sigma Aldrich, I 9278)
insulin-induced glucose uptake, time dependence ([1]; 200 nmol/L insulin, cells grown 1, 2, 3, 4, 5 or 12 days with p-, m- or o-Tyr, n = 5–8): approximately two-fold
insulin-induced glucose uptake, 5 mmol/L glucose ([1]; 2, 20, 200, 400 nmol/L insulin, 5 mmol/L glucose, medium with p-, m- or o-Tyr): marked increase in glucose uptake in 5 mmol/L glucose
insulin-induced IRS-1 phosphorylation [6]: approximately two-fold
insulin-induced Akt phosphorylation [7]: approximately two-fold
